Measured values from US7238725B2, “Tricyclic compounds useful for the treatment of inflammatory and allergic disorders: process for their preparation and pharmaceutical compositions containing them” (Glenmark Pharmaceuticals Ltd., priority 2002, dated 2007).

Assays:
[1] = biological target: PDE4 enzyme; assay: Inhibition of Phosphodiesterase Enzymes (PDE4), [3H]cAMP hydrolysis; format: biochemical; settings: PDE4 enzyme, 1 μM cAMP and 3H cAMP, 34° C.; read-out: IC50
Protocol: Inhibition of Phosphodiesterase Enzymes (PDE4)
In this assay, PDE4 enzyme converts [^3H] cAMP to the corresponding [^3H] 5′-AMP in proportion to the amount of PDE4 present The [^3H] 5′-AMP then was quantitatively converted to free [^3H] adenosine and phosphate by the action of snake venom 5′-nucleotidase.
The assay was performed with modification of the method of Thompson and Appleman (Biochemistry; 1971; 10; 311-316) and Schwartz and Passoneau (Proc. Natl. Acad. Sci. U.S.A. 1974; 71; 3844-3848), both references incorporated herein by reference in their entirety, at 34° C. In a 200 ul total reaction mixture, the reaction mixture contained 12.5 mM of Tris, 5 mM MgCl2, 1 μM cAMP (cold) and ^3H cAMP (0.1 uCi), (Amersham). […] Drug samples were then added in the reaction mixture (25 μl/tube). The assay was initiated by addition of enzyme mix (75 μl) and the mixture was incubated for 20 minutes at 34° C. The reaction was stopped by boiling the tubes for 2 mins at 100° C. in a water bath. After cooling on ice for 5 minutes and addition of 50 ug/reaction of 5′-nucleotidase snake venom from Crotalus atrox incubation was carried out again for 20 min. at 34° C. The unreacted substrate was separated from (^3H) Adenosine by addition of Dowex AG 1-X8 (Biorad Lab), (400 ul) which was prequilibrated (1:1:1) in water and ethanol. Reaction mixture was then thoroughly mixed, placed on ice for 15 minutes, vortexed and centrifuged at 14,000 r.p.m. for 2 mins. After centrifugation, a sample of the supernatant was taken and added in 24 well optiplates containing Scintillant (1 ml) and mixed well. The samples in the plates were then determined for radioactivity in a Top Counter and the PDE4 activity was estimated. PDE4 enzyme was present in quantities that yield <30% total hydrolysis of substrate (linear assay conditions).
Results were expressed as percent inhibition (IC50) in nM concentrations. The IC50 values were determined from the concentration curves by nonlinear regression analysis.
The IC50 value for the compound examined was determined from concentration-response curves in which varying range of concentrations were considered as shown in table 1

Row | IC50 [1] | melting point | Compound
1 | 8.68 nM |  | COc1ccc(C(=O)Nc2ccncc2)c2c1oc1ccccc12 [Example 3, N-(pyrid-4-yl)-4-methoxy dibenzo[b,d]furan-1-carboxamide]
2 | 67.3 nM |  | O=C(Nc1cc[n+]([O-])cc1)c1ccc(OC(F)F)c2oc3ccc(C(F)(F)F)cc3c12 [Example 15, N-(pyrid-4-yl)-4-difluoromethoxy-8-trifluoromethyl dibenzo[b,d]furan-1-carboxamide-N1-oxide]
3 |  | 235 to 236 °C | O=C(Nc1cccnc1)c1ccc(OC(F)F)c2oc3ccc(C(F)(F)F)cc3c12 [Example 16, N-(pyrid-3-yl)-4-difluoromethoxy-8-trifluoromethyl dibenzo[b,d]furan-1-carboxamide]
4 |  | 169 to 170 °C | O=C(Nc1ccccn1)c1ccc(OC(F)F)c2oc3ccc(C(F)(F)F)cc3c12 [Example 18, N-(pyrid-2-yl)-4-difluoromethoxy-8-trifluoromethyl dibenzo[b,d]furan-1-carboxamide]
5 | 15.8 nM |  | O=C(Nc1ccncc1)c1ccc(OC(F)F)c2oc3ccccc3c12 [Example 20, N-(pyrid-4-yl)-4-difluoromethoxy dibenzo[b,d]furan-1-carboxamide]
6 | 22.6 nM |  | O=C(Nc1cc[n+]([O-])cc1)c1ccc(OC(F)F)c2oc3ccccc3c12 [Example 21, N-(pyrid-4-yl)-4-difluoromethoxy dibenzo[b,d]furan-1-carboxamide-N1-oxide]
7 | 105 nM |  | O=C(Nc1cccnc1)c1ccc(OC(F)F)c2oc3ccccc3c12 [Example 22, N-(pyrid-3-yl)-4-difluoromethoxy dibenzo[b,d]furan-1-carboxamide]
8 | 147 nM |  | O=C(Nc1ccc[n+]([O-])c1)c1ccc(OC(F)F)c2oc3ccccc3c12 [Example 23, N-(pyrid-3-yl)-4-difluoromethoxy dibenzo[b,d]furan-1-carboxamide-N1-oxide]
9 |  | 155 to 157 °C | O=C(Nc1ccc(Cl)cn1)c1ccc(OC(F)F)c2oc3ccccc3c12 [Example 24, N-(5-chloropyrid-2-yl)-4-difluoromethoxy dibenzo[b,d]furan-1-carboxamide]
10 | 73.5 nM |  | O=C(Nc1ccncc1)c1ccc(OCC2CC2)c2oc3ccccc3c12 [Example 27, N-(pyrid-4-yl)-4-cyclopropylmethoxy dibenzo[b,d]furan-1-carboxamide]
11 | 351 nM |  | O=C(Nc1cccnc1)c1ccc(OCC2CC2)c2oc3ccccc3c12 [Example 29, N-(pyrid-3-yl)-4-cyclopropylmethoxy dibenzo[b,d]furan-1-carboxamide]
12 |  | 269 to 270 °C (dec.) | O=C(Nc1c(Cl)cncc1Cl)c1ccc(OCc2ccccc2)c2oc3ccccc3c12 [Example 37, N-(3,5-dichloropyrid-4-yl)-4-benzyloxy dibenzo[b,d]furan-1-carboxamide]
13 | 31.7 nM |  | COc1ccc(C(=O)Nc2ccncc2)c2c1oc1ccc([N+](=O)[O-])cc12 [Example 39, N-(pyrid-4-yl)-4-methoxy-8-nitro dibenzo[b,d]furan-1-carboxamide]
14 | 61.2 nM |  | COc1ccc(C(=O)Nc2ccncc2)c2c1oc1ccc(Br)cc12 [Example 43, N-(pyrid-4-yl)-4-methoxy-8-bromo-dibenzo[b,d]furan-1-carboxamide]
15 | 36.8 nM |  | COc1ccc(C(=O)Nc2ccncc2)c2c1oc1ccc(I)cc12 [Example 46, N-(pyrid-4-yl)-4-methoxy-8-iodo-dibenzo[b,d]furan-1-carboxamide]
16 |  | 176 °C (dec.) | COc1c(C(=O)Nc2c(Cl)cncc2Cl)ccc2c1oc1ccccc12 [Example 52, N-(3,5-dichloropyrid-4-yl)-4-methoxy dibenzo[b,d]furan-3-carboxamide]
17 |  | 242 to 244 °C | COc1ccc(S(=O)(=O)Nc2c(Cl)cncc2Cl)c2c1oc1ccccc12 [Example 54, N-(3,5-dichloropyrid-4-yl)-4-methoxy dibenzo[b,d]furan-1-sulfonamide]
18 | 86.4 nM |  | CCOc1ccc(C(=O)Nc2c(Cl)cncc2Cl)c2c1oc1ccccc12 [Example 60, 3,5-Dichloro-4-(4-ethoxydibenzo[b,d]furan-1-ylcarboxamido)pyridine]

Row | IC50 [1] | melting point | Compound
19 | 57 nM |  | CCOc1ccc(C(=O)Nc2c(Cl)c[n+]([O-])cc2Cl)c2c1oc1ccccc12 [Example 68, 3,5-Dichloro-4-(4-ethoxydibenzo[b,d]furan-1-ylcarboxamido)pyridine-N-oxide]
20 | 128 nM |  | COc1ccc(C(=O)Nc2ccncc2)c2c1[nH]c1ccccc12 [Example 79, N4-(4-pyridyl)-1-methoxy-9H-4-carbazole carboxamide]
21 | 19.6 nM |  | COc1ccc(C(=O)Nc2c(Cl)cncc2Cl)c2c3cc(Cl)ccc3n(Cc3ccccc3)c12 [Example 82, N4-(3,5-dichloro-4-pyridyl)-9-benzyl-6-chloro-1-methoxy-9H-4-carbazole carboxamide]
22 | 5.26 nM |  | COc1ccc(C(=O)Nc2c(Cl)cncc2Cl)c2c3cc(Cl)ccc3n(CC3CCCCC3)c12 [Example 83, N4-(3,5-dichloro-4-pyridyl)-6-chloro-9-cyclohexylmethyl-1-methoxy-9H-4-carbazole carboxamide]
23 | 14.6 nM |  | COc1ccc(C(=O)Nc2c(Cl)cncc2Cl)c2c3cc(Cl)ccc3n(Cc3ccc(F)cc3)c12 [Example 84, N4-(3,5-dichloro-4-pyridyl)-6-chloro-9-(4-fluorobenzyl)-1-methoxy-9H-4-carbazole carboxamide]
24 | 8.15 nM |  | COc1ccc(Cn2c3ccc(Cl)cc3c3c(C(=O)Nc4c(Cl)cncc4Cl)ccc(OC)c32)cc1 [Example 85, N4-(3,5-dichloro-4-pyridyl)-6-chloro-9-(4-methoxybenzyl)-1-methoxy-9H-4-carbazolecarboxamide]
25 | 72 nM |  | COc1ccc(C(=O)Nc2c(Cl)cncc2Cl)c2c3ccccc3n(Cc3ccc(F)cc3)c12 [Example 86, N4-(3,5-dichloro-4-pyridyl)-9-(4-fluorobenzyl)-1-methoxy-9H-4-carbazole carboxamide]
26 | 393 nM |  | COc1ccc(C(=O)Nc2ccncc2)c2c3ccccc3n(Cc3ccc(F)cc3)c12 [Example 87, N4-(4-pyridyl)-9-(4-fluorobenzyl)-1-methoxy-9H-4-carbazole carboxamide]
27 | 129 nM |  | COc1ccc(C(=O)Nc2c(Cl)cncc2Cl)c2c3ccccc3n(Cc3ccccc3)c12 [Example 88, N4-(3,5-dichloro-4-pyridyl)-9-benzyl-1-methoxy-9H-4-carbazolecarboxamide]
28 | 161 nM |  | COc1ccc(C(=O)Nc2ccncc2)c2c3cc(Cl)ccc3n(Cc3ccc(F)cc3)c12 [Example 93, N4-(4-pyridyl)-6-chloro-9-(4-fluorobenzyl)-1-methoxy-9H -4-carbazolecarboxamide]
29 | 281 nM |  | COc1ccc(C(=O)Nc2c(Cl)cncc2Cl)c2c3cccc(Cl)c3n(CC3CCCCC3)c12 [Example 94, N4-(3,5dichloro-4-pyridyl)-8-chloro-9-cyclohexylmethyl-1-methoxy-9H-4-carbazole carboxamide]
30 | 78.9 nM |  | COc1ccc(C(=O)Nc2c(Cl)cncc2Cl)c2c3cccc(Cl)c3n(Cc3ccc(F)cc3)c12 [Example 95, N4-(3,5dichloro-4pyridyl)-8-chloro-9-(4-Fluorobenzyl)-1-methoxy-9H-4-carbazole carboxamide]
31 | 40.3 nM |  | COc1ccc(C(=O)Nc2c(Cl)c[n+]([O-])cc2Cl)c2c3cc(Cl)ccc3n(Cc3ccc(F)cc3)c12 [Example 97, N4-(3,5-dichloro-4-pyridyl-N-oxide)-6-chloro-9-(4-fluorobenzyl)-1-methoxy-9H-4-carbazolecarboxamide]
32 | 39.6 nM |  | COc1ccc(Cn2c3ccc(Cl)cc3c3c(C(=O)Nc4c(Cl)c[n+]([O-])cc4Cl)ccc(OC)c32)cc1 [Example 98, N4-(3,5-dichloro-4-pyridyl-N-oxide)-6-chloro-9-(4-methoxybenzyl)-1-methoxy-9H-4-carba-zolecarboxamide]
33 | 30.1 nM |  | COc1ccc(C(=O)Nc2c(Cl)c[n+]([O-])cc2Cl)c2c3cc(Cl)ccc3n(CC3CCCCC3)c12 [Example 99, N4-(3,5-dichloro-4-pyridyl-N-oxide)-6-chloro-9-cyclohexylmethyl-1-methoxy-9-H-4-carbazolecarboxamide]
34 | 37.4 nM |  | COc1ccc(NS(=O)(=O)c2ccc(OC)c3sc4ccc(S(=O)(=O)N(C)C)cc4c23)cc1 [Example 115, N1-(4-methoxyphenyl)-8,N8-dimethyl-4-methoxydibenzo[b,d]thiophen-8,1-disulfonamide]
35 | 21.5 nM |  | O=C(Nc1c(Cl)cncc1Cl)c1ccc(OC(F)F)c2oc3ccc(N4CCCC4=O)cc3c12 [Example 121, N-(3,5-dichloropyrid-4-yl)-4-difluoromethoxy-8-(pyrrolidine-2-one-1-yl)-dibenzo[b,d]furan-1-carboxamide]
